Key:
human H4 receptor = biological target: T1, human H4 receptor (Homo sapiens, UniProt Q9H3N8); experiment: [3H]Histamine binding on membranes of CHO cells stably expressing human H4 receptor
T1 construct: expressed in transfected cells
In short: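 Nonspecific binding defined with 10 μM JNJ 7777120. Bound radioactivity collected on polyethyleneimine-treated GF/B filters and counted by liquid scintillation.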

T1 sequence (Q9H3N8 whole entry): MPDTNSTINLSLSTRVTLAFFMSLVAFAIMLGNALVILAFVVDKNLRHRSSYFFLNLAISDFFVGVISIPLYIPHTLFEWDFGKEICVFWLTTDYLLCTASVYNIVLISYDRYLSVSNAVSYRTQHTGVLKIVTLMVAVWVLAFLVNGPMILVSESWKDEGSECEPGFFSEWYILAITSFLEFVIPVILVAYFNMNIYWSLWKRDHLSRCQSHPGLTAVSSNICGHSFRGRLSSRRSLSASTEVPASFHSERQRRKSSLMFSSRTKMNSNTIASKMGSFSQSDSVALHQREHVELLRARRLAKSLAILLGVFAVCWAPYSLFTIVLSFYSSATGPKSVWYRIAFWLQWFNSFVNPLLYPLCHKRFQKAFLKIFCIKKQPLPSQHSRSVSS

Row | Compound | Ki or IC50 activity class (human H4 receptor) [µM] | melting point [°C]
1 | CN1CCC(OC(c2cccc(Br)c2)c2nc3ccccc3[nH]2)CC1 (single isomer, unassigned) [Example 564, 2-[(3-bromophenyl)(1-methylpiperidin-4-yloxy)methyl]-1H-benzimidazole] | < 0.03 | 85
2 | CN1CCC(OC(c2cccc(C#CCCCNC(=N)NC(=O)OC(C)(C)C)c2)c2nc3ccccc3s2)CC1 (centres unmarked) [Example 339, N-tert-butoxycarbonyl-N′-(5-{3-[(benzothiazol-2-yl)(1-methylpiperidin-4-yloxy)methyl]phenyl}pent-5-ynyl)guanidine] | < 0.3 | 125
3 | Cc1ccccc1C(OC1CCN(C)CC1)c1nc2ccccc2[nH]1 (centres unmarked) [Example 193, 2-[(1-methylpiperidin-4-yloxy)-o-tolyl-methyl]-1H-benzimidazole] | < 0.3 | 190
4 | Cc1ccc(COc2cccc(C(NC3CCN(C)CC3)c3nc4ccccc4[nH]3)c2)cc1 (centres unmarked) [Example 130, {(1H-benzimidazol-2-yl)[3-(4-methylbenzyloxy)phenyl]methyl}(1-methylpiperidin-4-yl)amine] | < 0.3 | 87
5 | COc1ccc(-c2cccc(C(OC3CCN(C)CC3)c3nc4ccccc4[nH]3)c2)cc1 (centres unmarked) [Example 183, 2-[(4′-methoxybiphenyl-3-yl)(1-methylpiperidin-4-yloxy)methyl]-1H-benzimidazole] | < 0.3 | 92
6 | CCc1cccc(C(OC2CCN(C)CC2)c2nc3ccccc3[nH]2)c1O (centres unmarked) [Example 616] | < 0.03 | 105
7 | Cc1ccc(C(OC2CCN(C)CC2)c2nc3ccccc3[nH]2)c(C)c1 (centres unmarked) [Example 541] | < 0.03 | 120
8 | CN1CCC(OC(c2cccc(I)c2)c2nc3ccccc3[nH]2)CC1 (centres unmarked) [Example 51, 2-[(3-iodophenyl)(1-methylpiperidin-4-yloxy)methyl]-1H-benzimidazole] | < 0.03 | 173.5
9 | CN1CCC(OC(c2nc3ccccc3[nH]2)c2cc(OCCCF)ccc2O)CC1 (centres unmarked) [Example 606] | < 0.3 | 114
10 | CN1CCC(OC(c2nc3ccccc3[nH]2)c2cc(Br)ccc2O)CC1 (centres unmarked) [Example 575] | < 0.03 | 145
11 | C=Cc1cccc(C(OC2CCN(C)CC2)c2nc3ccccc3s2)c1 (centres unmarked) [Example 218, 2-[(1-methylpiperidin-4-yloxy)(3-vinyl-phenyl)methyl]benzothiazole] | < 0.03 | 165
12 | CN1CCC(OC(c2nc3ccccc3[nH]2)c2c(O)cccc2F)CC1 (centres unmarked) [Example 582] | < 0.03 | 129
13 | CN1CCC(OC(c2nc3ccccc3[nH]2)c2cc(OCCF)ccc2O)CC1 (centres unmarked) [Example 605] | < 0.03 | 222
14 | Cc1c(F)cc(C(OC2CCN(C)CC2)c2nc3ccccc3[nH]2)c(O)c1F (centres unmarked) [Example 624] | < 0.03 | 146
15 | CN1CCC(NC(c2cccc(-c3ccco3)c2)c2nc3ccccc3[nH]2)CC1 (centres unmarked) [Example 144, [(1H-benzimidazol-2-yl)(3-furan-2-ylphenyl)methyl](1-methylpiperidin-4-yl)amine] | < 0.03 | 108
16 | CN1CCC(OC(c2nc3ccccc3[nH]2)c2c(O)cccc2Cl)CC1 (centres unmarked) [Example 594] | < 0.03 | 145
17 | CN1CCC(OC(c2nc3cc(F)c(F)cc3[nH]2)c2cc(OC(F)(F)F)ccc2F)CC1 (centres unmarked) [Example 511] | < 0.3 | 79
18 | CN1CCC(OC(c2nc3ccccc3[nH]2)c2ccccc2F)CC1 (centres unmarked) [Example 167, 2-[(2-fluorophenyl)(1-methylpiperidin-4-yloxy)methyl]-1H-benzimidazole] | < 0.03 | 181
19 | CC(C)c1cccc(C(NC2CCN(C)CC2)c2nc3ccccc3[nH]2)c1 (centres unmarked) [Example 66, [(1H-benzimidazol-2-yl)(3-isopropylphenyl)methyl](1-methylpiperidin-4-yl)amine] | < 1 | 82
20 | CN1CCC(NC(c2cccc([N+](=O)[O-])c2)c2nc3ccccc3[nH]2)CC1 (centres unmarked) [Example 131, [(1H-benzimidazol-2-yl)(3-nitrophenyl)methyl](1-methylpiperidin-4-yl)amine] | < 0.3 | 254
21 | CN1CCC(OC(c2cccc(C#CCCCCNC(=N)NC(=O)OC(C)(C)C)c2)c2nc3ccccc3s2)CC1 (centres unmarked) [Example 341, N-tert-butoxycarbonyl-N′-(6-{3-[(benzothiazol-2-yl)(1-methylpiperidin-4-yloxy)methyl]phenyl}hex-5-ynyl)guanidine] | < 0.3 | 130
22 | CN1CCC(OC(c2nc3ccccc3[nH]2)c2cc(Cc3ccccc3)ccc2O)CC1 (centres unmarked) [Example 596] | < 0.03 | 120

Row | Compound | Ki or IC50 activity class (human H4 receptor) [µM] | melting point [°C]
23 | Cc1cc(C(OC2CCN(C)CC2)c2nc3ccccc3[nH]2)c(O)c(F)c1C (centres unmarked) [Example 622] | < 0.3 | 163
24 | CN1CCC(OC(c2nc3ccccc3[nH]2)c2ccc(F)cc2O)CC1 (centres unmarked) [Example 584] | < 0.03 | 140
25 | CCOc1cccc(C(NC2CCN(C)CC2)c2nc3ccccc3[nH]2)c1 (centres unmarked) [Example 83, [(1H-benzimidazol-2-yl)(3-ethoxyphenyl)methyl](1-methylpiperidin-4-yl)amine] | < 0.3 | 74
26 | CN1CCC(OC(c2cccc(OCc3ccccn3)c2)c2nc3ccccc3[nH]2)CC1 (centres unmarked) [Example 310, 2-{(1-methylpiperidin-4-yloxy)[3-(pyridin-2-ylmethoxy)phenyl]methyl}-1H-benzimidazole] | < 0.3 | 77
27 | CN1CCC(NC(c2cccc(N=[N+]=[N-])c2)c2nc3ccccc3[nH]2)CC1 (centres unmarked) [Example 132, [(3-azidophenyl)(1H-benzimidazol-2-yl)methyl](1-methylpiperidin-4-yl)amine] | < 0.3 | 202
28 | CCOc1ccc(O)c(C(OC2CCN(C)CC2)c2nc3ccccc3[nH]2)c1 (centres unmarked) [Example 576] | < 0.03 | 213
29 | CCOc1ccc(F)c(C(OC2CCN(C)CC2)c2nc3ccccc3[nH]2)c1F (centres unmarked) [Example 535] | < 0.3 | 130
30 | CN1CCC(OC(c2nc3ccccc3[nH]2)c2cc3c(cc2O)CCC3)CC1 (centres unmarked) [Example 602] | < 0.3 | 152
31 | CN1CCC(NC(c2cccnc2)c2nc3ccccc3s2)CC1 (centres unmarked) [Example 52, (benzothiazol-2-ylpyridin-3-ylmethyl)(1-methylpiperidin-4-yl)amine] | < 1 | 109
32 | CN1CCC(OC(c2nc3ccccc3[nH]2)c2cccc(F)c2O)CC1 (centres unmarked) [Example 581] | < 0.03 | 145
33 | COc1cc(F)cc(C(OC2CCN(C)CC2)c2nc3ccccc3[nH]2)c1O (centres unmarked) [Example 610] | < 1 | 108
34 | CN1CCC(OC(c2cccc(C#CC3CCCNC3)c2)c2nc3ccccc3[nH]2)CC1 (centres unmarked) [Example 380, 2-[(1-methylpiperidin-4-yloxy)(3-piperidin-3-ylethynylphenyl)methyl]-1H-benzimidazole] | < 0.3 | 97
35 | CN1CCC(OC(c2cccc(SCCNc3c(N)c(=O)c3=O)c2)c2nc3ccccc3[nH]2)CC1 (centres unmarked) [Example 385, 3-amino-4-(2-{3-[(1H-benzimidazol-2-yl)(1-methylpiperidin-4-yloxy)methyl]phenylsulfanyl}ethylamino)-cyclobut-3-ene-1,2-dione] | < 0.3 | 161
36 | CN1CCC(OC(c2nc3ccccc3[nH]2)c2cc(O)ccc2O)CC1 (centres unmarked) [Example 618] | < 0.03 | 189
37 | CN1CCC(OC(c2nc3ccccc3[nH]2)c2ccccc2Cl)CC1 (centres unmarked) [Example 151, 2-[(2-chlorophenyl)(1-methylpiperidin-4-yloxy)methyl]-1H-benzimidazole] | < 0.3 | 212
38 | CN1CCC(OC(c2nc3ccccc3[nH]2)c2cccc(SCCN)c2F)CC1 (centres unmarked) [Example 352, 2-{3-[(1H-benzimidazol-2-yl)(1-methylpiperidin-4-yloxy)methyl]-2-fluorophenylsulfanyl}ethylamine] | < 0.3 | 204
39 | CN1CCC(OC(c2nc3ccccc3[nH]2)c2cc(F)c(F)cc2O)CC1 (centres unmarked) [Example 583] | < 0.3 | 198
40 | CC(=O)c1cccc(C(NC2CCN(C)CC2)c2nc3ccccc3[nH]2)c1 (centres unmarked) [Example 90, 1-{3-[(1H-benzimidazol-2-yl)(1-methylpiperidin-4-ylamino)methyl]phenyl}ethanone] | < 0.3 | 198
41 | CN1CCC(OC(c2cccc(SCCNC(=N)NC#N)c2)c2nc3ccccc3[nH]2)CC1 (centres unmarked) [Example 318, N-(2-{3-[(1H-benzimidazol-2-yl)(1-methylpiperidin-4-yloxy)methyl]phenylsulfanyl}ethyl)-N′-cyanoguanidine] | < 0.03 | 65
42 | CN1CCC(OC(c2nc3ccccc3[nH]2)c2ccc(C(F)(F)F)cc2O)CC1 (centres unmarked) [Example 617] | < 0.03 | 144
43 | CN1CCC(OC(c2cccc(OCCCCCN3CCN(C(=O)OC(C)(C)C)CC3)c2)c2nc3ccccc3s2)CC1 (centres unmarked) [Example 362, 4-(5-{3-[benzothiazol-2-yl(1-methylpiperidin-4-yloxy)methyl]phenoxy}pentyl)piperazine-1-carboxylic acid tert-butyl ester] | < 1 | 131

Reference: patent US8802664B2 (Bioproject, priority 2010, dated 2014)
